Results as given in patent US20200079812A1, “UV-B ABSORBING COMPOUNDS ISOLATED FROM PLANTS” (MAX-PLANCK-GESELLSCHAFT ZUR FÖRDERUNG DER WISSENSCHAFTEN …, priority 2015, published 2020).
“And” between values parts separate entries of the source, which are not always exact repeats. Equal entries are not always repeated.

Assay: UV-B absorption profile (UV-VIS spectra, HPLC-PDA profiling)
Type: physicochemical
Description: Column chromatography was carried out over ODS (Nacalai Tesque, Cosmosil 75C18-OPN). HPLC analysis was carried out on an Atlantis® (ϕ4.6×150 mm, Waters) at a flow rate of 0.5 ml min^1. Preparative HPLC was performed on a LC 10A system (Shimadzu) using an Inertsil® ODS-EP 5 m ($6.0×150 mm) at 30° C. and monitoring was accomplished by PDA (200-600 nm). HPLC-PDA-ESI-MS (HPLC/photodiode array detection/electrospray ionization mass spectrometry) was performed on a Finnigan LCQ-DECA mass spectrometer (ThermoQuest, San Jose, Calif., USA) and an Agilent HPLC 1100 series (Agilent Technologies, Palo Alto, Calif., USA). HR-ESI-MS was performed on an Exactive™ mass spectrometer (ThermoQuest, San Jose, Calif., USA). Optical rotations were determined on a JASCO P-1020. UV spectra were recorded on a JASCO V-560. NMR data were recorded on JEOL JNM ECP-600. The deuterated solvent CD3OD was used for peak 4. Coupling constants are expressed in Hz.
UV-VIS spectra in the range between 260 nm and 450 nm were recorded and analyzed via HPLC-PDA profiling for kaempferol-3-Glc-2″-Rha-7Rha (FIG. 3A), saiginol A (kaempferol-3-Glc-2″-Rha-6″-sinapoyl-7Rha, FIG. 3B) and sinapoyl-glucose (FIG. 3C). HPLC-PDA (HPLC/photodiode array detection) was performed on Dionex Ultimate 3000 system (San Jose, Calif., USA). […]

| UV-B absorption (efficiency / UV-B absorbent properties) (UV-VIS spectra 260-450 nm, HPLC-PDA profiling, FIG. 3) | Compound | Amax (UV-VIS absorption maximum) (UV-VIS spectrum, UV (MeOH)) |
| --- | --- | --- |
| – | COc1cc(/C=C/C(=O)OC[C@H]2O[C@@H](Oc3c(-c4ccc(O)cc4)oc4cc(O[C@@H]5O[C@@H](C)[C@H](O)[C@@H](O)[C@H]5O)cc(O)c4c3=O)[C@H](O[C@@H]3O[C@@H](C)[C@H](O)[C@@H](O)[C@H]3O)[C@@H](O)[C@@H]2O)cc(OC)c1O [Saiginol A, Kaempferol-3-O-[2-O-(α-L-rhamnopyranosyl)-6-O-(sinapoyl)-β-D-glucopyranoside]-7-O-α-L-rhamnopyranoside] | 201.5 nm and 223.0 nm and 266.5 nm and 331.5 nm |
| much less efficient | CC1OC(Oc2cc(O)c3c(=O)c(OC4OC(CO)C(O)C(O)C4OC4OC(C)C(O)C(O)C4O)c(-c4ccc(O)cc4)oc3c2)C(O)C(O)C1O (centres unmarked) [kaempferol-3-Glc-2″-Rha-7Rha, kaempferol-3-O-Glc-2″-O-Rha-7-O-Rha, reference compound] | – |
